Measured values: publication PMC3022839 (BMC Medical Imaging, 2011)
Values belong to the molecule of their own block, whether it stands above or below them.

Tests used:
18FDG brain uptake (PET) = format: in vivo, rat; details: 60 minutes after injection
Source text: No post-reconstruction filtering was applied.

[1] = system: P-glycoprotein (P-gp) at the blood-brain barrier; assay: Population mixed effects modelling (NONMEM) of (R)-[11C]verapamil brain kinetics
Experimental: Rats from the different groups were randomly assigned to experimental days and scanned in pairs for 60 minutes using a double LSO/LYSO layer High Resolution Research Tomograph (HRRT, CTI/Siemens, Knoxville, TN, USA) [37]. […] The other half was treated only with vehicle (3 mL/kg). […] The purpose of the ^18FDG scan was to outline the brain to aid in defining regions of interest. The HRRT scanner acquires data in list mode, enabling post-scan definition of the frame sequence. The final frame sequence used for analysis was 6 × 10, 2 × 30, 3 × 60, 2 × 150, 2 × 300 and 4 × 600 seconds. Studies were reconstructed using an iterative 3 D ordered-subsets weighted least-squares (3D-OSWLS) method with 8 iterations and 16 subsets [39]. No post-reconstruction filtering was applied. […]
PET image data were analyzed using the freely available software package Amide 0.8.22 [44]. […] To correct for an intravascular contribution, radioactivity measured in whole blood was exponentially interpolated to obtain blood radioactivity values at each mid frame time point and then subtracted from the brain time-activity curves, assuming that cerebral blood volume was 3% of the total brain volume [45]. […]
(§1) The NONMEM model was constructed in two steps. […] One, two and three compartment models were evaluated. […] Again, one and two compartment models were evaluated, and treatment, rat group and animal weight were included as covariates. […]

P-glycoprotein (P-gp) = assay: P-gp expression in brain capillaries (immunohistochemistry, C219); format: in vivo, rat; details: kainate vs saline treated rats, 7 days after treatment; cortex and hippocampus CA1
Sprague-Dawley rats = assay: Kainate-induced status epilepticus; format: in vivo, rat
Experimental: Adult male Sprague-Dawley rats (n = 50, Harlan, Horst, The Netherlands) weighing 200-224 g at arrival were housed in groups of 5-6 per cage until treatment. They were kept at a constant temperature of 21°C and at a 12 h light/dark cycle, in which lights were switched on at 8:00 AM. Animals had unrestricted access to food (Teklad Global 16% Protein Rodent Diet, Harlan, Madison, WI, USA) and water. Animal procedures were performed in accordance with Dutch laws on animal experimentation. All experiments were approved by the Ethics Committee for Animal Experiments of Leiden University (approval number UDEC08178). After approximately one week of habituation and 7 days prior to PET investigation rats were treated with either kainic acid (5 mg/mL) or saline. Kainic acid was administered repeatedly as a 10 mg/kg (2 mL/kg) i.p. injection followed by 5 mg/kg (1 mL/kg) i.p. every 30-60 minutes until stage IV seizures according to Racine's scale occurred, or when a total amount of 30 mg/kg kainic acid was reached. Control rats were treated with 3 saline i.p. injections using the same volumes as for the kainate treated rats, 30 minutes apart. After treatment rats were housed individually.

[2] = Tariquidar plasma concentration (LC/MS); format: in vivo; details: Sprague-Dawley, rat, intravenous, 15 mg/kg, 2 hours after tariquidar 15 mg/kg i.v., mean ± s.d.
[3] = Population mixed effects modelling (NONMEM) of (R)-[11C]verapamil plasma kinetics; details: tariquidar 15 mg/kg i.v. co-administration vs vehicle
Source text: Plasma time-activity curves were corrected for tracer metabolism before they were used as input for kinetic modelling. […] Two types of corrections were used: (1) complete metabolite correction and (2) correction only for polar metabolites. […] Mathematically, this is described by the following equations:
Nonlinear mixed effects modelling, using NONMEM VI (GloboMax LLC, Hanover, MD, USA), provide a tool for analyzing repeated measurements data in which the relationship between the explanatory and response variables can be modeled as a single function, allowing the parameters to differ between individuals. In addition, these techniques recognize that the variability associated with the response variable for a given individual may depend on the response value in a way that is similar for all individuals. This could be due, for example, to properties associated with measurement error.
Data from all rats was processed simultaneously. The subroutine ADVAN 9 and first-order conditional estimation with interaction were used throughout the modelling procedure. […]
as §1

18FDG brain uptake, SUV (18FDG brain uptake (PET); kainate treated rats, mean ± s.d.): 2.0 ± 0.4
18FDG brain uptake, SUV (18FDG brain uptake (PET); saline treated rats, mean ± s.d.): 1.6 ± 0.3
18FDG brain uptake, SUV (18FDG brain uptake (PET); with or without tariquidar co-administration (both groups)): 1.8 ± 0.4
SMILES: O=C[C@H]([18F])[C@@H](O)[C@H](O)[C@H](O)CO [^18FDG]

SMILES: C=C(C)[C@H]1CN[C@H](C(=O)O)[C@H]1CC(=O)O [kainic acid]
Covariate kainate on Vbr1 of (R)-[11C]verapamil (fractional difference) ([1]; kainate vs saline treated rats, 7 days after treatment): 1.32 (0.416)
increase of Vbr1 of (R)-[11C]verapamil in kainate treated compared to saline treated rats ([1]; population model, rat group as covariate, 7 days after kainate): 32%
P-gp expression, P-gp labelled surface area (P-glycoprotein (P-gp)): trend towards higher P-gp expression
P-gp expression, optical density (P-glycoprotein (P-gp)): no difference
duration of seizures (Sprague-Dawley rats; after kainic acid i.p.): 1 to 2 h
seizure stage reached (Racine's scale) (Sprague-Dawley rats; kainic acid i.p. 10 mg/kg then 5 mg/kg every 30-60 minutes, all rats, except one): stage IV-V seizures
rats that died as a result of treatment (Sprague-Dawley rats; kainic acid i.p., up to 30 mg/kg): Four
time to status epilepticus after the last injection (Sprague-Dawley rats; typically 3 injections, i.e. 20 mg/kg i.p.): ≤ 20 min

concentration at 2 h ([2]; kainate group): 1600 ± 300 ng/mL
concentration at 2 h ([2]; saline group): 1800 ± 300 ng/mL
SMILES: COc1cc2c(cc1OC)CN(CCc1ccc(NC(=O)c3cc(OC)c(OC)cc3NC(=O)c3cnc4ccccc4c3)cc1)CC2 [tariquidar, Tariquidar]
Covariate tariquidar on Vp1 of (R)-[11C]verapamil (fractional difference) [3]: 1.20 (0.119)
